Laboratory results published in ChEMBL document CHEMBL3885881, “DrugMatrix”.

Species: Rattus norvegicus
Assay: DrugMatrix - Regimen: Daily Repeat
Assay type: toxicity, organism-based, Sprague-Dawley
Parameters: regimen Daily Repeat, gender Male, age 6-8 weeks
Settings: in vivo, po, route oral GAVAGE, vehicle 100 % WATER; for ABSOLUTE BASOPHIL / ABSOLUTE EOSINOPHIL / ABSOLUTE LYMPHOCYTE / ABSOLUTE MONOCYTE / ABSOLUTE SEGMENTED NEUTROPHIL / BASOPHIL / EOSINOPHIL / ERYTHROCYTE COUNT / HEMATOCRIT / HEMOGLOBIN / LEUKOCYTE COUNT / LYMPHOCYTE / MEAN CORPUSCULAR HEMOGLOBIN / MEAN CORPUSCULAR HEMOGLOBIN CONCENTRATION / MEAN CORPUSCULAR VOLUME / MONOCYTE / NEUTROPHIL / NUCLEATED RED BLOOD CELLS / PLATELET COUNT: tissue Blood; for ALANINE AMINOTRANSFERASE / ALBUMIN / ALKALINE PHOSPHATASE / ASPARTATE AMINOTRANSFERASE / BLOOD UREA NITROGEN / CARBON DIOXIDE / CHLORIDE / CHOLESTEROL / CREATINE PHOSPHOKINASE / CREATININE / GLUCOSE / LACTATE DEHYDROGENASE / LIPASE / PHOSPHORUS / POTASSIUM / SODIUM / TOTAL BILIRUBIN / TOTAL PROTEIN / URIC ACID: tissue Plasma
[1] = 60 mg/kg, 72 h, dose level Low, time 3 day
[2] = 60 mg/kg, 120 h, dose level Low, time 5 day
[3] = 600 mg/kg, 72 h, dose level High, time 3 day
[4] = 600 mg/kg, 120 h, dose level High, time 5 day

C=C(Cl)Cl [1,1-DICHLOROETHENE]
ABSOLUTE BASOPHIL [1]: 0 CELLS/uL | ABSOLUTE EOSINOPHIL [1]: 51.33 CELLS/uL | ABSOLUTE LYMPHOCYTE [1]: 13010.33 CELLS/uL | ABSOLUTE MONOCYTE [1]: 288.67 CELLS/uL | ABSOLUTE SEGMENTED NEUTROPHIL [1]: 1149.67 CELLS/uL | BASOPHIL [1]: 0% | EOSINOPHIL [1]: 0.33% | ERYTHROCYTE COUNT [1]: 5.5 x10E6/uL | HEMATOCRIT [1]: 34% | HEMOGLOBIN [1]: 13.53 G/DL | LEUKOCYTE COUNT [1]: 14.5 x10E3/uL | LYMPHOCYTE [1]: 89.67% | MEAN CORPUSCULAR HEMOGLOBIN [1]: 24.63 pg | MEAN CORPUSCULAR HEMOGLOBIN CONCENTRATION [1]: 39.83 G/DL | MEAN CORPUSCULAR VOLUME [1]: 61.83 fL | MONOCYTE [1]: 2% | NEUTROPHIL [1]: 8% | NUCLEATED RED BLOOD CELLS [1]: 0.33 /100WBC | PLATELET COUNT [1]: 1358.33 x10E3/uL | ALANINE AMINOTRANSFERASE [1]: 52 u/L | ALBUMIN [1]: 4.13 G/DL | ALKALINE PHOSPHATASE [1]: 441.67 u/L | ASPARTATE AMINOTRANSFERASE [1]: 84.67 u/L | BLOOD UREA NITROGEN [1]: 15 mg/dL | CARBON DIOXIDE [1]: 24.33 mmol/L | CHLORIDE [1]: 102 MEQ/L | CHOLESTEROL [1]: 73.33 mg/dL | CREATINE PHOSPHOKINASE [1]: 314 u/L | CREATININE [1]: 0.14 mg/dL | GLUCOSE [1]: 162 mg/dL | LACTATE DEHYDROGENASE [1]: 291.33 u/L | LIPASE [1]: 9 u/L | PHOSPHORUS [1]: 13 mg/dL | POTASSIUM [1]: 6.27 MEQ/L | SODIUM [1]: 144.17 MEQ/L | TOTAL BILIRUBIN [1]: 0.13 mg/dL | TOTAL PROTEIN [1]: 5.77 G/DL | URIC ACID [1]: 1.43 mg/dL | ABSOLUTE BASOPHIL [2]: 0 CELLS/uL | ABSOLUTE EOSINOPHIL [2]: 128.33 CELLS/uL | ABSOLUTE LYMPHOCYTE [2]: 16922 CELLS/uL | ABSOLUTE MONOCYTE [2]: 76.33 CELLS/uL | ABSOLUTE SEGMENTED NEUTROPHIL [2]: 1473.33 CELLS/uL | BASOPHIL [2]: 0% | EOSINOPHIL [2]: 0.67% | ERYTHROCYTE COUNT [2]: 5.28 x10E6/uL | HEMATOCRIT [2]: 33.8% | HEMOGLOBIN [2]: 13.87 G/DL | LEUKOCYTE COUNT [2]: 18.6 x10E3/uL | LYMPHOCYTE [2]: 91.33% | MEAN CORPUSCULAR HEMOGLOBIN [2]: 26.23 pg | MEAN CORPUSCULAR HEMOGLOBIN CONCENTRATION [2]: 41.07 G/DL | MEAN CORPUSCULAR VOLUME [2]: 63.9 fL | MONOCYTE [2]: 0.33% | NEUTROPHIL [2]: 7.67% | NUCLEATED RED BLOOD CELLS [2]: 0 /100WBC | PLATELET COUNT [2]: 1031 x10E3/uL | ALANINE AMINOTRANSFERASE [2]: 56.67 u/L | ALBUMIN [2]: 4.23 G/DL | ALKALINE PHOSPHATASE [2]: 282 u/L | ASPARTATE AMINOTRANSFERASE [2]: 78 u/L | BLOOD UREA NITROGEN [2]: 16.67 mg/dL | CARBON DIOXIDE [2]: 23.67 mmol/L | CHLORIDE [2]: 103.67 MEQ/L | CHOLESTEROL [2]: 71.67 mg/dL | CREATINE PHOSPHOKINASE [2]: 168.67 u/L | CREATININE [2]: 0.22 mg/dL | GLUCOSE [2]: 147.33 mg/dL | LACTATE DEHYDROGENASE [2]: 101.67 u/L | LIPASE [2]: 9.33 u/L | PHOSPHORUS [2]: 13.27 mg/dL | POTASSIUM [2]: 6.62 MEQ/L | SODIUM [2]: 147.33 MEQ/L | TOTAL BILIRUBIN [2]: 0.2 mg/dL | TOTAL PROTEIN [2]: 5.9 G/DL | URIC ACID [2]: 1.67 mg/dL | ABSOLUTE BASOPHIL [3]: 0 CELLS/uL | ABSOLUTE EOSINOPHIL [3]: 0 CELLS/uL | ABSOLUTE LYMPHOCYTE [3]: 19725 CELLS/uL | ABSOLUTE MONOCYTE [3]: 397.33 CELLS/uL | ABSOLUTE SEGMENTED NEUTROPHIL [3]: 2311 CELLS/uL | BASOPHIL [3]: 0% | EOSINOPHIL [3]: 0% | ERYTHROCYTE COUNT [3]: 5.83 x10E6/uL | HEMATOCRIT [3]: 37.37% | HEMOGLOBIN [3]: 15.3 G/DL | LEUKOCYTE COUNT [3]: 22.43 x10E3/uL | LYMPHOCYTE [3]: 88.33% | MEAN CORPUSCULAR HEMOGLOBIN [3]: 26.2 pg | MEAN CORPUSCULAR HEMOGLOBIN CONCENTRATION [3]: 40.93 G/DL | MEAN CORPUSCULAR VOLUME [3]: 64 fL | MONOCYTE [3]: 2% | NEUTROPHIL [3]: 9.67% | NUCLEATED RED BLOOD CELLS [3]: 0.33 /100WBC | PLATELET COUNT [3]: 1189.67 x10E3/uL | ALANINE AMINOTRANSFERASE [3]: 61.33 u/L | ALBUMIN [3]: 4.23 G/DL | ALKALINE PHOSPHATASE [3]: 458.33 u/L | ASPARTATE AMINOTRANSFERASE [3]: 80 u/L | BLOOD UREA NITROGEN [3]: 11.33 mg/dL | CARBON DIOXIDE [3]: 26 mmol/L | CHLORIDE [3]: 103.67 MEQ/L | CHOLESTEROL [3]: 79.67 mg/dL | CREATINE PHOSPHOKINASE [3]: 213.67 u/L | CREATININE [3]: 0.17 mg/dL | GLUCOSE [3]: 159 mg/dL | LACTATE DEHYDROGENASE [3]: 74.33 u/L | LIPASE [3]: 9.67 u/L | PHOSPHORUS [3]: 12.7 mg/dL | POTASSIUM [3]: 6.59 MEQ/L | SODIUM [3]: 144.9 MEQ/L | TOTAL BILIRUBIN [3]: 0.2 mg/dL | TOTAL PROTEIN [3]: 5.83 G/DL | URIC ACID [3]: 1.9 mg/dL | ABSOLUTE BASOPHIL [4]: 0 CELLS/uL | ABSOLUTE EOSINOPHIL [4]: 0 CELLS/uL | ABSOLUTE LYMPHOCYTE [4]: 18262.67 CELLS/uL | ABSOLUTE MONOCYTE [4]: 288.67 CELLS/uL | ABSOLUTE SEGMENTED NEUTROPHIL [4]: 2115.33 CELLS/uL | BASOPHIL [4]: 0% | EOSINOPHIL [4]: 0% | ERYTHROCYTE COUNT [4]: 5.83 x10E6/uL | HEMATOCRIT [4]: 36.67% | HEMOGLOBIN [4]: 14.73 G/DL | LEUKOCYTE COUNT [4]: 20.67 x10E3/uL | LYMPHOCYTE [4]: 89% | MEAN CORPUSCULAR HEMOGLOBIN [4]: 25.23 pg | MEAN CORPUSCULAR HEMOGLOBIN CONCENTRATION [4]: 40.2 G/DL | MEAN CORPUSCULAR VOLUME [4]: 62.87 fL | MONOCYTE [4]: 1.33% | NEUTROPHIL [4]: 9.67% | NUCLEATED RED BLOOD CELLS [4]: 0.33 /100WBC | PLATELET COUNT [4]: 1233.33 x10E3/uL | ALANINE AMINOTRANSFERASE [4]: 48 u/L | ALBUMIN [4]: 4.23 G/DL | ALKALINE PHOSPHATASE [4]: 376.33 u/L | ASPARTATE AMINOTRANSFERASE [4]: 81 u/L | BLOOD UREA NITROGEN [4]: 14.67 mg/dL | CARBON DIOXIDE [4]: 23.33 mmol/L | CHLORIDE [4]: 102 MEQ/L | CHOLESTEROL [4]: 75 mg/dL | CREATINE PHOSPHOKINASE [4]: 337.67 u/L | CREATININE [4]: 0.21 mg/dL | GLUCOSE [4]: 150.33 mg/dL | LACTATE DEHYDROGENASE [4]: 117.33 u/L | LIPASE [4]: 10 u/L | PHOSPHORUS [4]: 12.33 mg/dL | POTASSIUM [4]: 7.1 MEQ/L | SODIUM [4]: 144.9 MEQ/L | TOTAL BILIRUBIN [4]: 0.2 mg/dL | TOTAL PROTEIN [4]: 6.1 G/DL | URIC ACID [4]: 1.77 mg/dL
